Laboratory results taken from patent US12077503B2, “Substituted cyclic amides and their use as herbicides” (FMC CORPORATION, priority 2015, dated 2024).

Columns and labels:
Format in all cases: in vivo
[1] = tested on: barnyardgrass (Echinochloa crus-galli); assay: Test G Post-Emergence Protocol; conditions: Echinochloa crus-galli, post-emergence, 312 h; for pest or weed control at 15.625 g/ha: 15.625 g ai/ha, evaluated after 13 days (100=total damage to plant; 0=no damage to plant), read-out: Barnyardgrass damage rating; for pest or weed control at 62.5 g/ha: 62.5 g ai/ha, read-out: Barnyardgrass damage rating (100=total damage to plant; 0=no damage to plant); for pest or weed control at 62.5 g/ha / pest or weed control at 250 g/ha: evaluated after 13 days; for pest or weed control at 250 g/ha: 250 g ai/ha, read-out: damage to plant, Barnyardgrass (100=total damage to plant; 0=no damage to plant)
Outline: (§1)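 Seedlings grown 8 days in soil in a glasshouse (24/16 °C day/night, 14 h light, 65% humidity) were sprayed post-emergence with compound in acetone/water 50:50 plus 0.5% Tween 20 at 15.625, 62.5 or 250 g/ha. Damage was scored after 13 days on a 0–100 scale (100 = total damage).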

[2] = tested on: velvetleaf (Abutilon theophrasti); assay: Test G Post-Emergence Protocol; conditions: Abutilon theophrasti, post-emergence, 312 h; for pest or weed control at 15.625 g/ha: 15.625 g ai/ha, evaluated after 13 days (100=total damage to plant; 0=no damage to plant), read-out: Velvetleaf damage rating; for pest or weed control at 62.5 g/ha: 62.5 g ai/ha, read-out: Velvetleaf damage rating (100=total damage to plant; 0=no damage to plant); for pest or weed control at 62.5 g/ha / pest or weed control at 250 g/ha: evaluated after 13 days; for pest or weed control at 250 g/ha: 250 g ai/ha, read-out: damage to plant, Velvetleaf (100=total damage to plant; 0=no damage to plant)
Outline: as §1

corn (Zea mays) [3] = assay: Test G Post-Emergence Protocol; conditions: Zea mays, post-emergence, 312 h; for plant injury at 15.625 g/ha: 15.625 g ai/ha, evaluated after 13 days (100=total damage to plant; 0=no damage to plant), read-out: Corn damage rating; for plant injury at 62.5 g/ha: 62.5 g ai/ha, read-out: Corn damage rating (100=total damage to plant; 0=no damage to plant); for plant injury at 62.5 g/ha / plant injury at 250 g/ha: evaluated after 13 days; for plant injury at 250 g/ha: 250 g ai/ha, read-out: damage to plant, Corn (100=total damage to plant; 0=no damage to plant)
Outline: as §1

[4] = tested on: redroot pigweed (Amaranthus retroflexus); assay: Test G Post-Emergence Protocol; conditions: Amaranthus retroflexus, post-emergence, 312 h; for pest or weed control at 15.625 g/ha: 15.625 g ai/ha, evaluated after 13 days (100=total damage to plant; 0=no damage to plant), read-out: Pigweed, Redroot damage rating; for pest or weed control at 62.5 g/ha: 62.5 g ai/ha, read-out: Pigweed, Redroot damage rating (100=total damage to plant; 0=no damage to plant); for pest or weed control at 62.5 g/ha / pest or weed control at 250 g/ha: evaluated after 13 days; for pest or weed control at 250 g/ha: 250 g ai/ha, read-out: damage to plant, Pigweed, Redroot (100=total damage to plant; 0=no damage to plant)
Outline: as §1

[5] = tested on: giant foxtail (Setaria faberi); assay: Test G Post-Emergence Protocol; conditions: Setaria faberi, post-emergence, 312 h; for pest or weed control at 15.625 g/ha: 15.625 g ai/ha, evaluated after 13 days (100=total damage to plant; 0=no damage to plant), read-out: Foxtail, Giant damage rating; for pest or weed control at 62.5 g/ha: 62.5 g ai/ha, read-out: Foxtail, Giant damage rating (100=total damage to plant; 0=no damage to plant); for pest or weed control at 62.5 g/ha / pest or weed control at 250 g/ha: evaluated after 13 days; for pest or weed control at 250 g/ha: 250 g ai/ha, read-out: damage to plant, Foxtail, Giant (100=total damage to plant; 0=no damage to plant)
Outline: as §1

[6] = tested on: ivy-leaved morning glory (Ipomoea hederacea); assay: Test G Post-Emergence Protocol; conditions: Ipomoea, post-emergence, 312 h; for pest or weed control at 15.625 g/ha: 15.625 g ai/ha, evaluated after 13 days (100=total damage to plant; 0=no damage to plant), read-out: Morningglory, Ivy-leaved damage rating; for pest or weed control at 62.5 g/ha: 62.5 g ai/ha, read-out: Morningglory, Ivy-leaved damage rating (100=total damage to plant; 0=no damage to plant); for pest or weed control at 62.5 g/ha / pest or weed control at 250 g/ha: evaluated after 13 days; for pest or weed control at 250 g/ha: 250 g ai/ha, read-out: damage to plant, Morningglory, Ivy-leaved (100=total damage to plant; 0=no damage to plant)
Outline: as §1

[7] = tested on: barnyardgrass (Echinochloa crus-galli); assay: Test G Pre-Emergence Protocol; conditions: Echinochloa crus-galli, pre-emergence, 312 h, evaluated after 13 days; for pest or weed control at 15.625 g/ha: 15.625 g ai/ha, read-out: Barnyard grass damage rating (100=total damage to plant; 0=no damage to plant); for pest or weed control at 62.5 g/ha: 62.5 g ai/ha, 100=total damage to plant, 0=no damage to plant, read-out: plant damage rating, Barnyardgrass; for pest or weed control at 250 g/ha: 250 g ai/ha, read-out: Barnyardgrass damage rating (100=total damage to plant; 0=no damage to plant)
Outline: (§2)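 Seeds were sown in standard soil and kept one day in a glasshouse (24/16° C day/night, 14 h light, 65% humidity), then sprayed with compound in acetone/water (50:50) containing 0.5% Tween 20 at 15.625, 62.5 or 250 g/ha. Damage was scored after 13 days (0 = none, 100 = total).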

[8] = tested on: velvetleaf (Abutilon theophrasti); assay: Test G Pre-Emergence Protocol; conditions: Abutilon theophrasti, pre-emergence, 312 h, evaluated after 13 days; for pest or weed control at 15.625 g/ha: 15.625 g ai/ha; for pest or weed control at 15.625 g/ha / pest or weed control at 250 g/ha: read-out: Velvetleaf damage rating (100=total damage to plant; 0=no damage to plant); for pest or weed control at 62.5 g/ha: 62.5 g ai/ha, 100=total damage to plant, 0=no damage to plant, read-out: plant damage rating, Velvetleaf; for pest or weed control at 250 g/ha: 250 g ai/ha
Outline: as §2

corn (Zea mays) [9] = assay: Test G Pre-Emergence Protocol; conditions: Zea mays, pre-emergence, 312 h, evaluated after 13 days; for plant injury at 15.625 g/ha: 15.625 g ai/ha; for plant injury at 15.625 g/ha / plant injury at 250 g/ha: read-out: Corn damage rating (100=total damage to plant; 0=no damage to plant); for plant injury at 62.5 g/ha: 62.5 g ai/ha, 100=total damage to plant, 0=no damage to plant, read-out: plant damage rating, Corn; for plant injury at 250 g/ha: 250 g ai/ha
Outline: as §2

[10] = tested on: redroot pigweed (Amaranthus retroflexus); assay: Test G Pre-Emergence Protocol; conditions: Amaranthus retroflexus, pre-emergence, 312 h, evaluated after 13 days; for pest or weed control at 15.625 g/ha: 15.625 g ai/ha; for pest or weed control at 15.625 g/ha / pest or weed control at 250 g/ha: read-out: Pigweed, Redroot damage rating (100=total damage to plant; 0=no damage to plant); for pest or weed control at 62.5 g/ha: 62.5 g ai/ha, 100=total damage to plant, 0=no damage to plant, read-out: plant damage rating, Pigweed, Redroot; for pest or weed control at 250 g/ha: 250 g ai/ha
Outline: as §2

[11] = tested on: giant foxtail (Setaria faberi); assay: Test G Pre-Emergence Protocol; conditions: Setaria faberi, pre-emergence, 312 h, evaluated after 13 days; for pest or weed control at 15.625 g/ha: 15.625 g ai/ha; for pest or weed control at 15.625 g/ha / pest or weed control at 250 g/ha: read-out: Foxtail, Giant damage rating (100=total damage to plant; 0=no damage to plant); for pest or weed control at 62.5 g/ha: 62.5 g ai/ha, 100=total damage to plant, 0=no damage to plant, read-out: plant damage rating, Foxtail, Giant; for pest or weed control at 250 g/ha: 250 g ai/ha
Outline: as §2

[12] = tested on: ivy-leaved morning glory (Ipomoea hederacea); assay: Test G Pre-Emergence Protocol; conditions: Ipomoea, pre-emergence, 312 h, evaluated after 13 days; for pest or weed control at 15.625 g/ha: 15.625 g ai/ha, read-out: Morning-glory, Ivy-leaved damage rating (100=total damage to plant; 0=no damage to plant); for pest or weed control at 62.5 g/ha: 62.5 g ai/ha, 100=total damage to plant, 0=no damage to plant, read-out: plant damage rating, Morningglory, Ivy-leaved; for pest or weed control at 250 g/ha: 250 g ai/ha, read-out: Morningglory, Ivy-leaved damage rating (100=total damage to plant; 0=no damage to plant)
Outline: as §2

Structure (SMILES)	pest or weed control at 15.625 g/ha [1] [%]	pest or weed control at 62.5 g/ha [1] [%]	pest or weed control at 250 g/ha [1] [%]	pest or weed control at 15.625 g/ha [2] [%]	pest or weed control at 62.5 g/ha [2] [%]	pest or weed control at 250 g/ha [2] [%]	plant injury at 15.625 g/ha (corn (Zea mays) [3]) [%]	plant injury at 62.5 g/ha (corn (Zea mays) [3]) [%]	plant injury at 250 g/ha (corn (Zea mays) [3]) [%]	pest or weed control at 15.625 g/ha [4] [%]	pest or weed control at 62.5 g/ha [4] [%]	pest or weed control at 250 g/ha [4] [%]	pest or weed control at 15.625 g/ha [5] [%]	pest or weed control at 62.5 g/ha [5] [%]	pest or weed control at 250 g/ha [5] [%]	pest or weed control at 15.625 g/ha [6] [%]	pest or weed control at 62.5 g/ha [6] [%]	pest or weed control at 250 g/ha [6] [%]	pest or weed control at 15.625 g/ha [7] [%]	pest or weed control at 62.5 g/ha [7] [%]	also measured
CN1C[C@H](c2cccc(C(F)F)c2)[C@@H](C(=O)Nc2ccccc2F)C1=O (racemic) [Compound 1464]	20	20	50	10	0	10	20	10	80	10	10	30	70	70	70	10	20	50	80	90	pest or weed control at 250 g/ha [7]: 90%; pest or weed control at 15.625 g/ha [8]: 0%; pest or weed control at 62.5 g/ha [8]: 0%; pest or weed control at 250 g/ha [8]: 0%; plant injury at 15.625 g/ha (corn (Zea mays) [9]): 0%; plant injury at 62.5 g/ha (corn (Zea mays) [9]): 50%; plant injury at 250 g/ha (corn (Zea mays) [9]): 80%; pest or weed control at 15.625 g/ha [10]: 0%; pest or weed control at 62.5 g/ha [10]: 0%; pest or weed control at 250 g/ha [10]: 0%; pest or weed control at 15.625 g/ha [11]: 80%; pest or weed control at 62.5 g/ha [11]: 90%; pest or weed control at 250 g/ha [11]: 90%; pest or weed control at 15.625 g/ha [12]: 0%; pest or weed control at 62.5 g/ha [12]: 30%; pest or weed control at 250 g/ha [12]: 70%
COc1c(Cl)ccc([C@H]2CNC(=O)[C@@H]2C(=O)Nc2cccc(F)n2)c1F (racemic) [Compound 1478]	10	40	60	0	0	0	0	10	20	0	0	10	10	30	60	0	0	10	0	0	pest or weed control at 250 g/ha [7]: 30%; pest or weed control at 15.625 g/ha [8]: 0%; pest or weed control at 62.5 g/ha [8]: 0%; pest or weed control at 250 g/ha [8]: 0%; plant injury at 15.625 g/ha (corn (Zea mays) [9]): 0%; plant injury at 62.5 g/ha (corn (Zea mays) [9]): 0%; plant injury at 250 g/ha (corn (Zea mays) [9]): 10%; pest or weed control at 15.625 g/ha [10]: 0%; pest or weed control at 62.5 g/ha [10]: 0%; pest or weed control at 250 g/ha [10]: 0%; pest or weed control at 15.625 g/ha [11]: 0%; pest or weed control at 62.5 g/ha [11]: 0%; pest or weed control at 250 g/ha [11]: 40%; pest or weed control at 15.625 g/ha [12]: 0%; pest or weed control at 62.5 g/ha [12]: 0%; pest or weed control at 250 g/ha [12]: 0%
